# Entries after “also recorded” stand apart in the source; their conditions may differ.
# What was measured:
# Sfn = assay: RT-qPCR of BPTF regulated genes in Eph4 cells, Sfn; assay type: cell-based, murine; conditions: 5 μM, 24 h, relative to DMSO
# Procedure: qPCR methods. Eph4 cells were treated for 24 h and harvested in trizol. RNA extraction was carried out via chloroform extractions. cDNA creation was completed via SuperScript III cDNA creation kit (Invitrogen, #12574026). All qpcrs are normalized to EPH4 DMSO and the house keeping gene beta actin. Bars represent 2 biological replicates and 3 technical replicates. All statistical analysis are student's t-test carried out on GraphPad. Reactions were carried out on the Quantstudio 6 platform using Sybr Green PCR Master Mix (Applied Biosystems, #4309155) Statistically significant differences for cell line treatment groups were considered with a one-way Anova p-value lower than 0.05 (p<0.05).
# It's been previously shown that BPTF inhibition was associated with alteration to lineage commitment and stem cell maintenance. Loss of BPTF expression in a mixed population of Krt5-expressing mammary stem cells induced differentiation, a process that was accompanied by changes to chromatin accessibility and altered gene expression activation. The effects of the BPTF inhibitors described herein were investigated in mammary luminal cells.
# [1] = tested on: 4T1 cells with shRNA-mediated BPTF knockdown; assay: Inhibitors with doxorubicin in BPTF knockdown 4T1 cells; assay type: cell-based, mouse
# Procedure: (§1) Cell culture methods. 4T1 cells were grown to a confluency of 50-60% using media containing DMEM with 10% fetal bovine serum (FES), 2 mM glutamine and penicillin-streptomycin. 4T1 cells with snRNA-mediated BPTF knockdown (KD) were prepared as described previously. For NURF inhibitor toxicity study, 4000 cells/well were seeded in a 96-well plate and allowed to adhere overnight. The next day, 10 different dilutions of inhibitors were prepared starting with a highest concentration of 1.0 mM and further serially diluted 10 times to get the lowest concentration of 1.95 μM. Cells were treated with the inhibitors in complete media for 4 days. Thereafter, the MTS reagent was prepared using the CellTitre 96 aqueous MTS reagent (Promega, Cat #G1111) and phenazine methosulphate (Sigma, Cat #P9625). The MTS assay was performed as per manufacturer's protocol and the absorbance was recorded at a wavelength of 490 nm. Fraction cell survival was calculated using untreated control cells to indicate complete survival (1.0) and blank solutions as 0.0 survival. The data was derived from three independent experiments (N=3) and fraction survival was plotted as mean fraction survival±SEM using GraphPad Prism software. […] Fraction survival was measured and calculated by MIS assay as mentioned above.
# 4T1 cells [2] = assay: Inhibitor toxicity in 4T1 cells (MTS assay); assay type: cell-based, mouse; conditions: inhibitor alone
# Procedure: as §1
# 4T1 cells [3] = assay: Combination with doxorubicin in 4T1 cells (MTS assay); assay type: cell-based, mouse; conditions: for sensitization of 4T1 cells to doxorubicin: 50 nM doxorubicin
# Procedure: Cell culture methods. 4T1 cells were grown to a confluency of 50-60% using media containing DMEM with 10% fetal bovine serum (FES), 2 mM glutamine and penicillin-streptomycin. 4T1 cells with snRNA-mediated BPTF knockdown (KD) were prepared as described previously. For NURF inhibitor toxicity study, 4000 cells/well were seeded in a 96-well plate and allowed to adhere overnight. The next day, 10 different dilutions of inhibitors were prepared starting with a highest concentration of 1.0 mM and further serially diluted 10 times to get the lowest concentration of 1.95 μM. Cells were treated with the inhibitors in complete media for 4 days. Thereafter, the MTS reagent was prepared using the CellTitre 96 aqueous MTS reagent (Promega, Cat #G1111) and phenazine methosulphate (Sigma, Cat #P9625). The MTS assay was performed as per manufacturer's protocol and the absorbance was recorded at a wavelength of 490 nm. Fraction cell survival was calculated using untreated control cells to indicate complete survival (1.0) and blank solutions as 0.0 survival. The data was derived from three independent experiments (N=3) and fraction survival was plotted as mean fraction survival±SEM using GraphPad Prism software. For checking the toxicity on wildtype and BPTF knockdown cells, three doses were selected for each inhibitor based on theft toxicity curves and treated for 4 days alone or in combination with 50 nM doxorubicin. Fraction survival was measured and calculated by MIS assay as mentioned above.
# BPTF bromodomain = target: T1, BPTF bromodomain (Homo sapiens, UniProt Q12830); assay: BPTF AlphaScreen competitive inhibition assay; assay type: binding
# T1 construct: 30 nM for His9-tagged BPTF bromodomain and 50 nM for the biotinylated peptide were used; made in house
# Procedure: (§3) General Procedure for AlphaScreen Assay.^36 Unlabeled His9-tagged BPTF and BRD4 D1 were expressed and purified as described previously.^36 The AlphaScreen assay procedures for BPTF and BRD4 bromodomains were adapted from the manufacturers protocol (PerkinElmer, USA). […] The biotinylated Histone H4 KAc5,8,12,16 peptide was purchased from EpiCypher, with the sequence:
# (§4) All reagents were diluted in the assay buffer (50 mM HEPES-Na^+ (ChemImpex), 100 mM NaCl (SigmaAldrich), 0.05% CHAPS (RPI), 0.1% BSA (SigmaAldrich), pH 7.4). The final assay concentrations (after the addition of all assay components) of 30 nM for His9-tagged BPTF bromodomain and 50 nM for the biotinylated peptide were used. […] The plate was sealed and kept at room temperature for 30 min, followed by the addition of 5 μL of the biotinylated peptide. 5 μL of nickel chelate acceptor beads was added to each well under low light conditions (<100 lux), to a final concentration of 20 μg/mL, and the plate was incubated at room temperature in the dark for 30 minutes. This was followed by the addition of 5 μL (20 μg/mL final concentration) of streptavidin donor beads in low light conditions. After incubation for 30 min in the dark, the plate was read in AlphaScreen mode using a PerkinElmer EnSpire plate reader. […] IC50 values were calculated in GraphPad Prism 5 using sigmoidal 4-parameter logistic (4PL) curve
# [4] = assay type: physicochemical
# Procedure: UV-Vis Methods. Compounds were diluted in DMSO at a top concentration of 100 mM. 2-fold serial dilutions in DMSO where performed followed by 1000-fold dilution into phosphate saline buffer (PBS) to get a final top concentration of 100 μM in 0.1% DMSO for each compound. UV-Vis measurements at 254 nm were taken on a Biomate 3S Spectrophotometer.
# BRD4(1) [5] = target: T2, BRD4(1) (Homo sapiens, UniProt O60885); assay: PrOF NMR titration, 5FW-BRD4(1); assay type: binding; parameters: three class I bromodomains, BPTF, PCAF, CECR2 and one class II bromodomain, BRD4(1) were fluorine-labelled; made in house; conditions: 5FW-labeled protein
# Procedure: (§5) Protein-Observed Fluorine (PrOF) NMR. […] 40-50 μM of protein in 50 mM TRIS, 100 mM NaCl, and pH 7.4 was diluted by adding 25 μL of D2O and 2 μL of 0.1% TFA for NMR locking and referencing purposes, respectively. […] Ligands were titrated and the change in chemical shift relative to the control sample was plotted as a function of ligand concentration to generate binding isotherms. The data was processed in Mestrenova and isotherms were fit using GraphPad Prism with the equation below. Δδobs is the change in chemical shift, [L] is the total ligand concentration, and [P] is the total protein concentration:
# (§6) The tryptophan residue in the WPF shelf of three class I bromodomains, BPTF, PCAF, CECR2 and one class II bromodomain, BRD4(1) were fluorine-labelled (FIG. 4A) and the chemical shift perturbation on titrating in BZ1 was observed.
# GCN5L2 = target: T3, GCN5L2 (Homo sapiens, UniProt Q92830); assay: BROMOscan, GCN5L2; assay type: binding; conditions: BROMOscan one-point measurement at 140 nM
# T3 construct: off-target class I (PCAF, GCN5L2, CECR2,) and class IV (BRD7, BRD9) bromodomains and BRD4(1); purchased
# T3 sequence (Q92830 728-832 limits assumed): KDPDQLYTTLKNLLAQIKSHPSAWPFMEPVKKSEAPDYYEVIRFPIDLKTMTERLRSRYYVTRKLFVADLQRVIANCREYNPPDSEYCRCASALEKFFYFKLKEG
# From the text: (§2) Based on the preliminary assessment of BPTF selectivity and affinity of BZ1 by PrOF NMR and AlphaScreen competition assays, the ligand was characterized using a commercial BROMOscan assay. […]. Given the low concentration of ligand and protein used, AlphaScreen can be used to estimate K values as was previously the case for characterizing BRD4-ligand interactions, however the assay for BPTF may slightly underestimate the affinity. […] […]. Recently reported pyridazinone-based inhibitors also bind to these proteins and BRD9 was reported as the closest off-target for TP-238. These studies supported good on target-BPTF inhibition, and identified several off-targets bromodomains for a more quantitative selectivity analysis.
# PCAF [6] = target: T4, PCAF (Homo sapiens, UniProt Q92831); assay: PrOF NMR titration, 5FW-PCAF; assay type: binding; conditions: 5FW-labeled protein
# T4 construct: three class I bromodomains, BPTF, PCAF, CECR2 and one class II bromodomain, BRD4(1) were fluorine-labelled; made in house
# T4 sequence (Q92831 723-827): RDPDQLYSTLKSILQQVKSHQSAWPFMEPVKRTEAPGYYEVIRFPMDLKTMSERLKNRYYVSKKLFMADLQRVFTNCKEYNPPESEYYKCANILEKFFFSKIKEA
# Procedure: as §5, §6
# CECR2 [7] = target: T5, CECR2 (Homo sapiens, UniProt Q9BXF3); assay: PrOF NMR titration, 5FW-CECR2; assay type: binding; parameters: three class I bromodomains, BPTF, PCAF, CECR2 and one class II bromodomain, BRD4(1) were fluorine-labelled; made in house; conditions: 5FW-labeled protein
# Target sequence in this assay (Q9BXF3 434-538): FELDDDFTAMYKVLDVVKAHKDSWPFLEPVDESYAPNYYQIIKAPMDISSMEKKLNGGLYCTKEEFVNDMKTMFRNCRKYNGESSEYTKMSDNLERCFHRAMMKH
# Procedure: as §5, §6
# CECR2 [8] = target: T5, CECR2; assay: BROMOscan, CECR2; assay type: binding; parameters: off-target class I (PCAF, GCN5L2, CECR2,) and class IV (BRD7, BRD9) bromodomains and BRD4(1); purchased; conditions: BROMOscan one-point measurement at 140 nM
# From the text: as §2
# Target sequence in this assay (Q9BXF3 434-538 limits assumed): as the sequence (Q9BXF3 434-538) above
# Eph4 cells = conditions: 5 μM
# Procedure: Cytotoxicity experiments with Eph4 cells. […] Media containing each condition were changed every 12 hours. […] Cells were also stained with Live/Dead Violet (Thermo Scientific, #L34964) in accordance to manufacturers specifications. All flow was performed on a Macsquant 10 (Miltenyl Biotec) and analyzed on FlowJo (TreeStar/BD).
# [9] = disclosed by the structural genomics consortium; cited from earlier work
# CECR2 [10] = target: T5, CECR2; conditions: disclosed by the structural genomics consortium; cited from earlier work
# Target sequence in this assay (Q9BXF3 whole entry): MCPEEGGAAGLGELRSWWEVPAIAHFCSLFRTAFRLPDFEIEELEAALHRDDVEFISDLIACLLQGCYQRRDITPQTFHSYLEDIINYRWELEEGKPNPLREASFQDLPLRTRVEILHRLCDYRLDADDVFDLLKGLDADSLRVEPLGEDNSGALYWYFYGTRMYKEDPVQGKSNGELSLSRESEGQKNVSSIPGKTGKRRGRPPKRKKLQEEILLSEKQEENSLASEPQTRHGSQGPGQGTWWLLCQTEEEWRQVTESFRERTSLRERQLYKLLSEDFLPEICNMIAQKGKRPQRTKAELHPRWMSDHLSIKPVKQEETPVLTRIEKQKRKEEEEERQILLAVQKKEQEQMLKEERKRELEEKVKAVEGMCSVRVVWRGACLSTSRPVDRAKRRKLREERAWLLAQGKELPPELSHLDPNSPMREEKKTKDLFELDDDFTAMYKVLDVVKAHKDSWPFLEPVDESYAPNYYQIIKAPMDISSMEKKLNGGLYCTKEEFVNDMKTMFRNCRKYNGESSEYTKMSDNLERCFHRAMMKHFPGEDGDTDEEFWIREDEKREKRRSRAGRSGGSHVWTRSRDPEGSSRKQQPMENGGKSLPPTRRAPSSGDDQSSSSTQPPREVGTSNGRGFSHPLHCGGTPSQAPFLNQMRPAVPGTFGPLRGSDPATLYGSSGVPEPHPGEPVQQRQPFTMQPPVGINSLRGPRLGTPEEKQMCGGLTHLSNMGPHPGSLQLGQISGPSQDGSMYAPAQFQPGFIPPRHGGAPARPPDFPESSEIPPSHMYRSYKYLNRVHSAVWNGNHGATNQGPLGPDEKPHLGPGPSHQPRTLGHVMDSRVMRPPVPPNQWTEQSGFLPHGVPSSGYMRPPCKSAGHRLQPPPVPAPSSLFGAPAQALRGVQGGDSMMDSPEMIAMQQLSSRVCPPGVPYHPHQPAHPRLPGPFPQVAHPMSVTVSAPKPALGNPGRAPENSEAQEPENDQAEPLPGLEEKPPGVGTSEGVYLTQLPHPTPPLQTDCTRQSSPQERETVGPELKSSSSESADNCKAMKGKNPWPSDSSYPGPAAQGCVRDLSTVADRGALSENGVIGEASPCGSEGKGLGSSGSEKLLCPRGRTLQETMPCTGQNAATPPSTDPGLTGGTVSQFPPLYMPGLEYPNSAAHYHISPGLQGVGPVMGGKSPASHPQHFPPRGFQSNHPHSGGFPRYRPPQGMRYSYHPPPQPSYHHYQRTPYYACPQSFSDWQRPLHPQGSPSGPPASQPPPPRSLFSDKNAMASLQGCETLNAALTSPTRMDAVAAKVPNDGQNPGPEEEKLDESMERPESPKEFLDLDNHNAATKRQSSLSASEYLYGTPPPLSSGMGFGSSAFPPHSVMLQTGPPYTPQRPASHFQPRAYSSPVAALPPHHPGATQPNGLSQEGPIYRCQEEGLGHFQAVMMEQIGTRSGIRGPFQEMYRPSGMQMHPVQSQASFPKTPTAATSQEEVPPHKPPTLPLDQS
# BRD4(1) [11] = target: T2, BRD4(1); assay: BRD4(1) AlphaScreen competitive inhibition assay; assay type: binding; parameters: Unlabeled His9-tagged BPTF and BRD4 D1 were expressed and purified as described previously; made in house
# Procedure: as §3, §4
# PCAF [12] = target: T6, PCAF (Homo sapiens, UniProt Q92831); assay: BROMOscan, PCAF; assay type: binding
# T6 construct: off-target class I (PCAF, GCN5L2, CECR2,) and class IV (BRD7, BRD9) bromodomains and BRD4(1); purchased
# T6 sequence (Q92831 723-827 limits assumed): T4 sequence (Q92831 723-827)
# Procedure: Given that these measurements were only estimates of affinity, a full titration was carried out for five additional bromodomains (FIG. 5B).
# BPTF = target: T7, BPTF (Homo sapiens, UniProt Q12830); assay: BROMOscan, BPTF; assay type: binding
# T7 construct: Kd values for BZ1 with BPTF and off-target class I (PCAF, GCN5L2, CECR2,) and class IV (BRD7, BRD9) bromodomains; purchased
# BRD9 = target: T8, BRD9 (Homo sapiens, UniProt Q9H8M2); conditions: previously reported; cited from earlier work
# T8 sequence (Q9H8M2 1-597): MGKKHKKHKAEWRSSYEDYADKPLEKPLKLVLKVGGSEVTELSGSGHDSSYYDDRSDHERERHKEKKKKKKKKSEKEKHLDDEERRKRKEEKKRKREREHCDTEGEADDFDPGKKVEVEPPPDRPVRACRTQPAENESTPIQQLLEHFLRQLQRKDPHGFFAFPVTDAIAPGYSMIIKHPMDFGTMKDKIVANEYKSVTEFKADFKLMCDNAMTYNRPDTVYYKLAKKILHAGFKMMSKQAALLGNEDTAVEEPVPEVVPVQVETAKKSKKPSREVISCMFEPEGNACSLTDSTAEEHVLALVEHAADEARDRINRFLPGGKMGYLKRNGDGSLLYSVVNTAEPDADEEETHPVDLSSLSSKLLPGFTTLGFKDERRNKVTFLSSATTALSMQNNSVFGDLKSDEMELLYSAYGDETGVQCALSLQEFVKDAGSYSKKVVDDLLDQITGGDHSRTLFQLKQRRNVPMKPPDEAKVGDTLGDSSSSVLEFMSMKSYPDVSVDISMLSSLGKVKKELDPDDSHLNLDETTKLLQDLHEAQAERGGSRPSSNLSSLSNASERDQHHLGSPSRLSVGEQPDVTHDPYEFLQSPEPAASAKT
# PCAF [13] = target: PCAF (Homo sapiens, UniProt Q92831); conditions: previously reported; cited from earlier work
# Target sequence in this assay (Q92831 whole entry): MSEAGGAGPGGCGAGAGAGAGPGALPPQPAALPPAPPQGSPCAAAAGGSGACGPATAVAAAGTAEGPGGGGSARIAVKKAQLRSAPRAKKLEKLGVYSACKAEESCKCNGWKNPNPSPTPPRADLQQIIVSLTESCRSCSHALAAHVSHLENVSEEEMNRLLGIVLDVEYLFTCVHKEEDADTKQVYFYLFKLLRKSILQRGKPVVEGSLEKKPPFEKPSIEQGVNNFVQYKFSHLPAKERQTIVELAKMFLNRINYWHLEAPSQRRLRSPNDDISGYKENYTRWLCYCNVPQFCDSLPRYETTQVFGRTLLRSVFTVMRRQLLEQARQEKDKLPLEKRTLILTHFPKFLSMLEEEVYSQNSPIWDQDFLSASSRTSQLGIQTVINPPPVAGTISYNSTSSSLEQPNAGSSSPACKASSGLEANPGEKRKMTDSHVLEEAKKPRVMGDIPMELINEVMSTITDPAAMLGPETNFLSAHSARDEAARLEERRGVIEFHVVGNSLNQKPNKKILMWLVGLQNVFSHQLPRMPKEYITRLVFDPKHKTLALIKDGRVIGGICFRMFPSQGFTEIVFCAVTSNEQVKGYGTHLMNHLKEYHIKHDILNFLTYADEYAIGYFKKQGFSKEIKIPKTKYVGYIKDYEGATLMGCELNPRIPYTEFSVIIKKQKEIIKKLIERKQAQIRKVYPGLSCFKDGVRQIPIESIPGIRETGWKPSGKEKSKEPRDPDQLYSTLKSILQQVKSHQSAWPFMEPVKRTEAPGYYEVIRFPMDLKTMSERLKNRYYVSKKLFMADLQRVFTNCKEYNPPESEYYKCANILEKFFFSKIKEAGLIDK
compound,measurement,setting,value
"COC(=O)c1cccc(NC(=O)N[C@H]2CCN(c3ccnc(Nc4ccc(F)cc4)n3)C2)c1 [AU1, reference compound]",Sfn mRNA level,Sfn,upregulated Sfn but did not reach a high enough level of statistical significance
same,further toxicity in BPTF knockdown cells,[1],Additional toxicity was observed
same,concentration at which toxicity starts,4T1 cells [2],above 16 μM
same,sensitization of 4T1 cells to doxorubicin,4T1 cells [3],synergize with chemotherapy drug doxorubicin
"CN(C)CCc1ccc(Nc2c(Cl)cnn(C)c2=O)cc1 [Compound 20, 5-chloro-4-((4-(2-(dimethylamino)ethyl)phenyl)amino)-2-methylpyridazin-3(2H)-one]",Sfn mRNA level,Sfn,not significantly affected
same,IC50,BPTF bromodomain,10000 nM
same,weaker affinity than 18,BPTF bromodomain,140 fold
same,L.E. (ligand efficiency),BPTF bromodomain; from BPTF AlphaScreen,0.32
same,solubility,[4],≥ 100 µM
same,sensitization of 4T1 cells to doxorubicin,4T1 cells [3],did not
"Cn1ncc(Nc2ccc(CCN)cc2)c(Cl)c1=O [Compound 18, 5-((4-(2-aminoethyl)phenyl)amino)-4-chloro-2-methylpyridazin-3(2H)-one]",chemical exchange regime with BRD4(1),BRD4(1) [5],fast-intermediate exchange
same,inhibition of GCN5L2,GCN5L2,lower levels of inhibition
same,chemical exchange regime with PCAF,PCAF [6],slow exchange regime stoichiometric titration
same,chemical exchange regime with CECR2,CECR2 [7],intermediate chemical exchange
same,inhibition of CECR2,CECR2 [8],lower levels of inhibition
same,solubility,[4],≥ 100 µM
same,sensitization of 4T1 cells to doxorubicin,4T1 cells [3]; listed as BZ1,synergize with chemotherapy drug doxorubicin; also recorded: sensitized 4T1 cells to doxorubicin
"CN(C)CCc1ccc(Nc2cnn(C)c(=O)c2Cl)cc1 [Compound 19, 4-chloro-5-((4-(2-(dimethylamino)ethyl)phenyl)amino)-2-methylpyridazin-3(2H)-one]",Sfn mRNA level,Sfn,statistically significant increase
same,solubility,[4],≥ 100 µM
same,sensitization of 4T1 cells to doxorubicin,4T1 cells [3],synergize with chemotherapy drug doxorubicin; also recorded: sensitized 4T1 cells to doxorubicin
same,less effective than BZ1,4T1 cells [3]; dose dependence experiment with doxorubicin,2-4 fold
same,caspase activation,Eph4 cells,lack of caspase activation
Cc1c(Nc2ccc(S(=O)(=O)N3CCN(C)CC3)cc2F)nc2ccc(-c3cnn(C4CC4)c3)cn2c1=O [NVS-BPTF-1],solubility and ADME properties,[9],poor solubility and ADME properties
CN(C)CCCOc1ccc(-c2cc(NCCCn3cccn3)nc(S(C)(=O)=O)n2)cc1 [TP-238],higher affinity for CECR2 over BPTF,CECR2 [10],12 fold
"C#CCn1ncc(Nc2ccc(CN)cc2)c(Cl)c1=O [Compound 24, 5-((4-(aminomethyl)phenyl)amino)-4-chloro-2-(prop-2-yn-1-yl)pyridazin-3(2H)-one]",IC50,BPTF bromodomain,380 nM
same,IC50,BRD4(1) [11],71000 nM
same,Kd,PCAF [12],230 nM
same,Kd,BPTF,200 nM
"Cn1ncc(Nc2ccccc2)c(Cl)c1=O [Compound 6, 4-chloro-2-methyl-5-(phenylamino)pyridazin-3(2H)-one]",improvement in affinity compared to previous aliphatic amine analogues,BPTF bromodomain,10 fold
same,affinity for BRD9,BRD9,2.5 µM
same,affinity for PCAF,PCAF [13],10 µM
